Assays:
cotton [1] = assay: Preemergent control of plant species; assay type: in vivo, Gossypium spp.; conditions: Gossypium hirsutum, pre-emergence, 336 h; 0.25 lb/acre; read-out: percent preemergent control
Procedure, shortened: (§1)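 Preemergent application of aqueous emulsions at rates given in the table, uniformly over seeded greenhouse soil. Untreated (water) beds as comparison; rating after 2 weeks as reduction in growth.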

rape [2] = assay: Preemergent control of plant species; assay type: in vivo, Brassica napus; conditions: Brassica napus, pre-emergence, 336 h; 0.25 lb/acre; read-out: percent preemergent control
Procedure, shortened: as §1

soybean [3] = assay: Preemergent control of plant species; assay type: in vivo, Glycine max.; conditions: Glycine max, pre-emergence, 336 h; 0.25 lb/acre; read-out: percent preemergent control
Procedure, shortened: as §1

sugar beet [4] = assay: Preemergent control of plant species; assay type: in vivo, Beta saccharifera; conditions: Beta vulgaris, pre-emergence, 336 h; 0.25 lb/acre; read-out: percent preemergent control
Procedure, shortened: as §1

jimsonweed [5] = assay: Preemergent control of plant species; assay type: in vivo, Datura stramonium; conditions: Datura stramonium, pre-emergence, 336 h; 0.25 lb/acre; read-out: percent preemergent control
Procedure, shortened: as §1

annual morning glory [6] = assay: Preemergent control of plant species; assay type: in vivo, Ipomoea spp.; conditions: Ipomoea, pre-emergence, 336 h; 0.25 lb/acre; read-out: percent preemergent control
Procedure, shortened: as §1

velvetleaf [7] = assay: Preemergent control of plant species; assay type: in vivo, Abutilon theophrasti; conditions: Abutilon theophrasti, pre-emergence, 336 h; 0.25 lb/acre; read-out: percent preemergent control
Procedure, shortened: as §1

corn [8] = assay: Preemergent control of plant species; assay type: in vivo, Zea mays; conditions: Zea mays, pre-emergence, 336 h; 0.25 lb/acre; read-out: percent preemergent control
Procedure, shortened: as §1

rice [9] = assay: Preemergent control of plant species; assay type: in vivo, Oryza sativa; conditions: Oryza sativa, pre-emergence, 336 h; 0.25 lb/acre; read-out: percent preemergent control
Procedure, shortened: as §1

sorghum [10] = assay: Preemergent control of plant species; assay type: in vivo, Sorghum vulgare; conditions: Sorghum, pre-emergence, 336 h; 0.25 lb/acre; read-out: percent preemergent control
Procedure, shortened: as §1

wheat [11] = assay: Preemergent control of plant species; assay type: in vivo, Triticum aestivum; conditions: Triticum aestivum, pre-emergence, 336 h; 0.25 lb/acre; read-out: percent preemergent control
Procedure, shortened: as §1

barnyardgrass [12] = assay: Preemergent control of plant species; assay type: in vivo, Echinochloa crusgalli; conditions: Echinochloa crus-galli, pre-emergence, 336 h; 0.25 lb/acre; read-out: percent preemergent control
Procedure, shortened: as §1

johnson grass [13] = assay: Preemergent control of plant species; assay type: in vivo, Sorghum halepense; conditions: Sorghum halepense, pre-emergence, 336 h; 0.25 lb/acre; read-out: percent preemergent control
Procedure, shortened: as §1

yellow foxtail [14] = assay: Preemergent control of plant species; assay type: in vivo, Setaria lutescens; conditions: Setaria, pre-emergence, 336 h; 0.25 lb/acre; read-out: percent preemergent control
Procedure, shortened: as §1

yellow nutsedge [15] = assay: Preemergent control of plant species; assay type: in vivo, Cyperus esculentus; conditions: Cyperus, pre-emergence, 336 h; 0.25 lb/acre; read-out: percent preemergent control
Procedure, shortened: as §1

corn (First In) = assay: Gametocidal activity in corn, postemergent application; assay type: in vivo; conditions: sprayed at three leaf stage
Protocol: The compounds of this invention are also plant gametocides depending on the dosage and timing of application and the species of plant to which the compounds are applied. For example, certain of the compounds were sprayed on corn seedlings at the three leaf stage of growth, and the seedlings were returned to the greenhouse for subsequent growth and observation. The corn variety was "First In". The chemicals were dissolved in acetone, and the acetone solution was diluted with water containing Tween 20 wetting agent such that the final spray solution contained 50% acetone and 0.1% Tween 20 in water. […] Tabulated below are data which illustrate the use of the compounds of this invention as plant gametocides in corn.

cotton [16] = assay: Postemergent control of plant species; assay type: in vivo, Gossypium spp.; conditions: Gossypium hirsutum, post-emergence, 336 h, read-out: percent postemergent control
Procedure, shortened: (§2)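 Each compound is dissolved in acetone, mixed with an equal volume of 0.1% surfactant water, and sprayed on plants grown to 2-4 leaves in nutrient soil. Treated and untreated beds sit under identical greenhouse temperature and light for roughly two weeks before growth reduction is rated.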

rape [17] = assay: Postemergent control of plant species; assay type: in vivo, Brassica napus; conditions: Brassica napus, post-emergence, 336 h, read-out: percent postemergent control
Procedure, shortened: as §2

soybean [18] = assay: Postemergent control of plant species; assay type: in vivo, Glycine max.; conditions: Glycine max, post-emergence, 336 h, read-out: percent postemergent control
Procedure, shortened: as §2

sugar beet [19] = assay: Postemergent control of plant species; assay type: in vivo, Beta saccharifera; conditions: Beta vulgaris, post-emergence, 336 h, read-out: percent postemergent control
Procedure, shortened: as §2

cocklebur = assay: Postemergent control of plant species; assay type: in vivo, Xanthium spp.; conditions: Xanthium strumarium, post-emergence, 336 h, read-out: percent postemergent control
Procedure, shortened: as §2

jimsonweed [20] = assay: Postemergent control of plant species; assay type: in vivo, Datura stramonium; conditions: Datura stramonium, post-emergence, 336 h, read-out: percent postemergent control
Procedure, shortened: as §2

annual morning glory [21] = assay: Postemergent control of plant species; assay type: in vivo, Ipomoea spp.; conditions: Ipomoea, post-emergence, 336 h, read-out: percent postemergent control
Procedure, shortened: as §2

pigweed = assay: Postemergent control of plant species; assay type: in vivo, Amaranthus spp.; conditions: Amaranthus retroflexus, post-emergence, 336 h, read-out: percent postemergent control
Procedure, shortened: as §2

velvetleaf [22] = assay: Postemergent control of plant species; assay type: in vivo, Abutilon theophrasti; conditions: Abutilon theophrasti, post-emergence, 336 h, read-out: percent postemergent control
Procedure, shortened: as §2

corn [23] = assay: Postemergent control of plant species; assay type: in vivo, Zea mays; conditions: Zea mays, post-emergence, 336 h, read-out: percent postemergent control
Procedure, shortened: as §2

rice [24] = assay: Postemergent control of plant species; assay type: in vivo, Oryza sativa; conditions: Oryza sativa, post-emergence, 336 h, read-out: percent postemergent control
Procedure, shortened: as §2

sorghum [25] = assay: Postemergent control of plant species; assay type: in vivo, Sorghum vulgare; conditions: Sorghum, post-emergence, 336 h, read-out: percent postemergent control
Procedure, shortened: as §2

wheat [26] = assay: Postemergent control of plant species; assay type: in vivo, Triticum aestivum; conditions: Triticum aestivum, post-emergence, 336 h, read-out: percent postemergent control
Procedure, shortened: as §2

barnyardgrass [27] = assay: Postemergent control of plant species; assay type: in vivo, Echinochloa crusgalli; conditions: Echinochloa crus-galli, post-emergence, 336 h, read-out: percent postemergent control
Procedure, shortened: as §2

crabgrass = assay: Postemergent control of plant species; assay type: in vivo, Digitaria spp.; conditions: Digitaria sanguinalis, post-emergence, 336 h, read-out: percent postemergent control
Procedure, shortened: as §2

yellow foxtail [28] = assay: Postemergent control of plant species; assay type: in vivo, Setaria lutescens; conditions: Setaria, post-emergence, 336 h, read-out: percent postemergent control
Procedure, shortened: as §2

johnson grass [29] = assay: Postemergent control of plant species; assay type: in vivo, Sorghum halepense; conditions: Sorghum halepense, post-emergence, 336 h, read-out: percent postemergent control
Procedure, shortened: as §2

wild oats = assay: Postemergent control of plant species; assay type: in vivo, Avena fatua; conditions: Avena fatua, post-emergence, 336 h, read-out: percent postemergent control
Procedure, shortened: as §2

yellow nutsedge [30] = assay: Postemergent control of plant species; assay type: in vivo, Cyperus esculentus; conditions: Cyperus, post-emergence, 336 h, read-out: percent postemergent control
Procedure, shortened: as §2

[31] = system: nitrification of ammonium nitrogen; assay: Suppression of nitrification of ammonium nitrogen in soil; conditions: 27° C.
Procedure, shortened: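 Soil (20 g) moistened to its 1/3 bar tension value, mixed with test chemical and incubated sealed for two weeks at 27° C. Nitrate extracted with ammonium sulfate solution and measured by nitrate-specific ion electrode; value given as % NH4-N remaining.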

[32] = system: annual sugar beet variety (SLC03); assay: Plant growth regulator activity, postemergence; assay type: in vivo
Description: Using a regular biennial variety, even a bolting-susceptible variety would require a cold treatment of around 10-16 weeks plus a hormone treatement in conjunction with specific light intensities. Thus, for a screening organism, we selected one which would consistently produce bolting on a regular schedule. The screen is run with an annual sugar beet variety (SLC03) provided by Dr. Richard J. Hecker, Fort Collins, Colo. This variety is an inbred which bolts in the 6- to 8-leaf stage without any need for vernalization. This allows the screen to be run entirely in the greenhouse with all 110 chemical compounds tested on one tray. The sugarbeets are grown in 3×3 inch square pots in a greenhouse sandy loam potting mix. The sugarbeets are sprayed with test compounds when they are 2 to 3 weeks old (2 true leaves). The compounds are dissolved in acetone and diluted with water containing Tween 20 as a wetting agent. The concentration of acetone in the final spray is 20% and the concentration of Tween 20 is 0.05 percent. The plants are examined for the appearance of a bolt 4 weeks after spraying.

CCCCC(=O)N(c1c(F)cccc1F)S(=O)(=O)c1nc2nc(C)ccn2n1 [Compound 279] was tested, and the plant injury at 280.212 g/ha (cotton [1]) was 90%, the plant injury at 280.212 g/ha (rape [2]) was 100% and the plant injury at 280.212 g/ha (soybean [3]) was 20%. The plant injury at 280.212 g/ha (sugar beet [4]) was 100%, the pest or weed control at 280.212 g/ha (jimsonweed [5]) was 100% and the pest or weed control at 280.212 g/ha (annual morning glory [6]) was 90%. It also gave a pest or weed control at 280.212 g/ha (velvetleaf [7]) of 100%, a plant injury at 280.212 g/ha (corn [8]) of 80% and a plant injury at 280.212 g/ha (rice [9]) of 100%. The plant injury at 280.212 g/ha (sorghum [10]) was 100%, the plant injury at 280.212 g/ha (wheat [11]) was 90% and the pest or weed control at 280.212 g/ha (barnyardgrass [12]) was 100%. It also gave a pest or weed control at 280.212 g/ha (johnson grass [13]) of 100%, a pest or weed control at 280.212 g/ha (yellow foxtail [14]) of 100% and a pest or weed control at 280.212 g/ha (yellow nutsedge [15]) of 100%. For the same compound, the “concentration required to produce 100% control (gametocidal activity)” value (corn (First In)) was 50 ppm.

Cc1cccc(Cl)c1NS(=O)(=O)c1nc2ncc(Cl)cn2n1 [Compound 119] showed a plant injury at 500 ppm (cotton [16]) of 0%, a plant injury at 500 ppm (rape [17]) of 100% and a plant injury at 500 ppm (soybean [18]) of 0%. It also gave a plant injury at 500 ppm (sugar beet [19]) of 50%, a pest or weed control at 500 ppm (cocklebur) of 70% and a pest or weed control at 500 ppm (jimsonweed [20]) of 90%. The pest or weed control at 500 ppm (annual morning glory [21]) was 30%, the pest or weed control at 500 ppm (pigweed) was 0% and the pest or weed control at 500 ppm (velvetleaf [22]) was 70%. For the same compound, the plant injury at 500 ppm (corn [23]) was 30%, the plant injury at 500 ppm (rice [24]) was 0% and the plant injury at 500 ppm (sorghum [25]) was 0%. It also gave a plant injury at 500 ppm (wheat [26]) of 0%, a pest or weed control at 500 ppm (barnyardgrass [27]) of 0% and a pest or weed control at 500 ppm (crabgrass) of 0%. It also gave a pest or weed control at 500 ppm (yellow foxtail [28]) of 0%, a pest or weed control at 500 ppm (johnson grass [29]) of 80% and a pest or weed control at 500 ppm (wild oats) of 0%. The pest or weed control at 500 ppm (yellow nutsedge [30]) was 40%, the “% NH4-N Remaining After 2 Weeks Incubation” value ([31]; 0.06 ppm) was 23% and the “% NH4-N Remaining After 2 Weeks Incubation” value ([31]; 0.25 ppm) was 33%. The “% NH4-N Remaining After 2 Weeks Incubation” value ([31]; 1 ppm) was 69%, the “% NH4-N Remaining After 2 Weeks Incubation” value ([31]; 4 ppm) was 88% and the “observed effect (postemergence)” value ([32]; 400 ppm) was “stunting”. For the same compound, the minimal effective concentration ([32]; Beta vulgaris, post-emergence, 672 h, 4 weeks after spraying, read-out: Bolting Inhibition (postemergence), concentration with observed effect) was 400 µg/mL.

— US4740233A, “Substituted 1,2,4-triazolo[1,5-a]-pyrimidine-2-sulfonamides and compositions and methods of controlling undesired vegetation and suppressing the nitrification of ammonium nitrogen in soil” (The Dow Chemical Company, priority 1986, dated 1988)
